From patent US20220041606A1, “POSITIVE ALLOSTERIC MODULATORS OF THE MUSCARINIC ACETYLCHOLINE RECEPTOR M1” (Vanderbilt University, priority 2020, published 2022)
pEC50: −log10 of the molar value.

Experiments:
human mAChR M1 [1] = biological target: T1, human mAChR M1 (Homo sapiens, UniProt P11229); test: mAChR M1 cell-based functional assay (calcium mobilization), agonist activity upon compound addition; settings: CHO-K1 cells expressing hM1; for pEC50: compound alone, before acetylcholine addition; for Emax: relative to the maximum for acetylcholine
T1 construct: host or cells: CHO-K1 cells (ATCC), stably transfected using Lipofectamine2000
T1 sequence (P11229 1-460): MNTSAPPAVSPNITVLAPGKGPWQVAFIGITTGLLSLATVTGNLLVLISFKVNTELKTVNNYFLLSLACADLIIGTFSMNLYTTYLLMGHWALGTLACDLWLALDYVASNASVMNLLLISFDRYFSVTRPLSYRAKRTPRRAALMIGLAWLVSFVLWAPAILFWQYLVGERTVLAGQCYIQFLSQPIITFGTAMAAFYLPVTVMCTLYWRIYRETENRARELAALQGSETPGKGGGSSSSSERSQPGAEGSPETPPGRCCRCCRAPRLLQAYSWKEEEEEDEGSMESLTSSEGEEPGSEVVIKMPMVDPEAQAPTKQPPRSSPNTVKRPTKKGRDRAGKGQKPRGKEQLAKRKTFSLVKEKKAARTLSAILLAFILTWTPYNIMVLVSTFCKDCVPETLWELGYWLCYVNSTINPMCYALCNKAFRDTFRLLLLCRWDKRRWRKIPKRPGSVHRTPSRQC
Excerpt: (§1) Chinese hamster ovary (CHO-K1) cells stably expressing rat (r)M1 were purchased from the American Type Culture Collection and cultured according to their indicated protocol. CHO cells stably expressing human (h)M2, hM3, and hM5 were described previously (Levey, et al., 1991); hM1 and hM4 cDNAs were purchased from Missouri S&T cDNA Resource; rM4 cDNA was provided by T. L. Bonner (National Institutes of Health, Bethesda, MID). rM2 and rM3 were cloned from a rat brain cDNA library and sequence verified. hM1, rM2, rM3, hM4, and rM4 cDNAs were used to stably transfect CHO-K1 cells purchased from the American Type Culture Collection using Lipofectamine2000. To make stable rM2, hM2, rM3, hM4, and rM4 cell lines for use in calcium mobilization assays, these cells also were stably transfected with a chimeric G-protein (Gqi5) (provided by B. R. Conklin, University of California, San Francisco) using Lipofectamine 2000. rM1, hM1, rM3, hM3, rM5, and hM5 cells were grown in Ham's F-12 medium containing 10% heat-inactivated fetal bovine serum (FBS), 20 mM HEPES, and 50 μg/mL G418 sulfate. rM2-Gq15, hM2-Gqi5, and hM4-Gqi5 cells were grown in the same medium also containing 500 μg/mL Hygromycin B. Stable rM4-Gqi5 cells were grown in DMEM containing 10% heat-inactivated FBS, 20 mM HEPES, 400 μg/mL G418 sulfate, and 500 μg/mL Hygromycin B.
(§2) For high throughput measurement of agonist-evoked increases in intracellular calcium, CHO-K1 cells stably expressing muscarinic receptors were plated in growth medium lacking G418 and hygromycin at 15,000 cells/20 μL/well in Greiner 384-well black-walled, tissue culture (TC)-treated, clear-bottom plates (VWR). Cells were incubated overnight at 37° C. and 5% CO2. The next day, cells were washed using an ELX 405 (BioTek) with four washes (80 μL) of assay buffer then aspirated to 20 μL. Next, 20 μL of 16 μM Fluo-4/acetoxymethyl ester (Invitrogen, Carlsbad, Calif.) prepared as a 2.3 mM stock in DMSO and mixed in a 1:1 ratio with 10% (w/v) Pluronic F-127 and diluted in assay buffer was added to the wells and the cell plates were incubated for 50 min at 37° C. and 5% CO2. Dye was removed by washing with the ELX 405 (four 80 μL washes of assay buffer) then aspirated to 20 μL. Compound master plates were formatted in an 11 point CRC format (1:3 dilutions) in 100% DMSO with a starting concentration of 10 mM using the BRAVO liquid handler (Agilent). Test compound CRCs were then transferred to daughter plates (240 nL) using the Echo acoustic plate reformatter (Labcyte, Sunnyvale, Calif.) and then diluted into assay buffer (40 μL) to a 2× stock using a Thermo Fisher Combi (Thermo Fisher Scientific, Waltham, Mass.).
(§3) Calcium flux was measured using the Functional Drug Screening System (FDSS) 6000 (Hamamatsu Corporation, Tokyo, Japan) as an increase in the fluorescent static ratio. Compounds were applied to cells (20 μL, 2×) using the automated system of the FDSS 6000 at 4 s into the 300 s protocol and the data were collected at 1 Hz. At 144 s into the 300s protocol, 10 μL of an EC20 concentration of the muscarinic receptor agonist acetylcholine was added (5×), followed by the addition of 12 μL an EC80 concentration of acetylcholine at the 230 s time point (5×). Agonist activity was analyzed as a concentration-dependent increase in calcium mobilization upon compound addition. Emax values for agonist activity are expressed relative to the maximum for acetylcholine. Positive allosteric modulator activity was analyzed as a concentration-dependent increase in the EC20 acetylcholine response. Antagonist activity was analyzed as a concentration-dependent decrease in the EC80 acetylcholine response. Concentration-response curves were generated using a four-parameter logistical equation in XLfit curve fitting software (IDBS, Bridgewater, N.J.) for Excel (Microsoft, Redmond, Wash.) or Prism (GraphPad Software, Inc., San Diego, Calif.). […]

human mAChR M1 [2] = biological target: T1, human mAChR M1; test: mAChR M1 cell-based functional assay (calcium mobilization), PAM activity: increase in the EC20 acetylcholine response; settings: CHO-K1 cells expressing hM1; potentiation of EC20 acetylcholine response
Excerpt: as §1, §2, §3

SMILES	pEC50 (human mAChR M1 [1])	Emax (human mAChR M1 [1])	pEC50 (human mAChR M1 [2])	Emax (human mAChR M1 [2])
O=C(N[C@H]1CCCCC[C@@H]1O)c1cn(Cc2ccc(-n3cccn3)cc2)c(=O)c2cccnc12 [Compound A25, 6-(4-(1H-pyrazol-1-yl)benzyl)-N-((1S,2S)-2-hydroxycycloheptyl)-5-oxo-5,6-dihydro-1,6-naphthyridine-8-carboxamide]	< 5.00	< 5%	6.01	68%
Cc1cc(-c2ccc(Cn3cc(C(=O)N[C@H]4CCC[C@@H]4O)c4ncccc4c3=O)c(F)c2)ccn1 [Compound A28, 6-(2-fluoro-4-(2-methylpyridin-4-yl)benzyl)-N-((1S,2S)-2-hydroxycyclopentyl)-5-oxo-5,6-dihydro-1,6-naphthyridine-8-carboxamide]	< 5.00	< 5%	5.94	54%
Cc1cccc(-c2ccc(Cn3cc(C(=O)N[C@H]4CCOC[C@@H]4O)c4ncccc4c3=O)c(F)c2)c1 [Compound A29, 6-((3-fluoro-3′-methyl-[1,1′-biphenyl]-4-yl)methyl)-N-((3R,4S)-3-hydroxytetrahydro-2H-pyran-4-yl)-5-oxo-5,6-dihydro-1,6-naphthyridine-8-carboxamide]	< 5.00	< 5%	5.32	61%
Cc1cc(C)cc(-c2ccc(Cn3cc(C(=O)N[C@H]4CCOC[C@@H]4O)c4ncccc4c3=O)c(F)c2)c1 [Compound A30, 6-((3-fluoro-3′,5′-dimethyl-[1,1′-biphenyl]-4-yl)methyl)-N-((3R,4S)-3-hydroxytetrahydro-2H-pyran-4-yl)-5-oxo-5,6-dihydro-1,6-naphthyridine-8-carboxamide]	< 5.00	< 5%	5.34	47%
Cc1cccc(-c2cc(F)c(Cn3cc(C(=O)N[C@H]4CCOC[C@@H]4O)c4ncccc4c3=O)c(F)c2)c1 [Compound A31, 6-((3,5-difluoro-3′-methyl-[1,1′-biphenyl]-4-yl)methyl)-N-((3R,4S)-3-hydroxytetrahydro-2H-pyran-4-yl)-5-oxo-5,6-dihydro-1,6-naphthyridine-8-carboxamide]	< 5.00	< 5%	5.59	70%
Cc1cc(C)cc(-c2cc(F)c(Cn3cc(C(=O)N[C@H]4CCOC[C@@H]4O)c4ncccc4c3=O)c(F)c2)c1 [Compound A32, 6-((3,5-difluoro-3′,5′-dimethyl-[1,1′-biphenyl]-4-yl)methyl)-N-((3R,4S)-3-hydroxytetrahydro-2H-pyran-4-yl)-5-oxo-5,6-dihydro-1,6-naphthyridine-8-carboxamide]	< 5.00	< 5%	5.65	70%
Cc1cncc(-c2cc(F)c(Cn3cc(C(=O)N[C@H]4CCOC[C@@H]4O)c4ncccc4c3=O)c(F)c2)c1 [Compound A33, 6-(2,6-difluoro-4-(5-methylpyridin-3-yl)benzyl)-N-((3R,4S)-3-hydroxytetrahydro-2H-pyran-4-yl)-5-oxo-5,6-dihydro-1,6-naphthyridine-8-carboxamide]	5.49	13%	6.07	64%

The remaining molecules from weak to strong by pEC50 (human mAChR M1 [2]), led by results:

pEC50 (human mAChR M1 [1])	Emax (human mAChR M1 [1])	pEC50 (human mAChR M1 [2])	Emax (human mAChR M1 [2])	SMILES
< 5.00	6%	6.07	74%	Cc1cc(-c2ccc(Cn3cc(C(=O)N[C@H]4CCCC[C@@H]4O)c4ncccc4c3=O)c(F)c2)ccn1 [Compound A27, 6-(2-Fluoro-4-(2-methylpyridin-4-yl)benzyl)-N-((1S,2S)-2-hydroxycyclohexyl)-5-oxo-5,6-dihydro-1,6-naphthyridine-8-carboxamide]
< 5.00	< 5%	6.11	46%	Cc1cc(-c2cc(F)c(Cn3cc(C(=O)N[C@H]4CCCC[C@@H]4O)c4ncccc4c3=O)c(F)c2)ccn1 [Compound A37, 6-(2,6-difluoro-4-(2-methylpyridin-4-yl)benzyl)-N-((1S,2S)-2-hydroxycyclohexyl)-5-oxo-5,6-dihydro-1,6-naphthyridine-8-carboxamide]
5.54	12%	6.21	65%	Cc1ccc(-c2cc(F)c(Cn3cc(C(=O)N[C@H]4CCOC[C@@H]4O)c4ncccc4c3=O)c(F)c2)cn1 [Compound A34, 6-(2,6-difluoro-4-(6-methylpyridin-3-yl)benzyl)-N-((3R,4S)-3-hydroxytetrahydro-2H-pyran-4-yl)-5-oxo-5,6-dihydro-1,6-naphthyridine-8-carboxamide]
5.75	13%	6.21	65%	Cc1cc(-c2cc(F)c(Cn3cc(C(=O)N[C@H]4CCOC[C@@H]4O)c4ncccc4c3=O)c(F)c2)ccn1 [Compound A36, 6-(2,6-difluoro-4-(2-methylpyridin-4-yl)benzyl)-N-((3R,4S)-3-hydroxytetrahydro-2H-pyran-4-yl)-5-oxo-5,6-dihydro-1,6-naphthyridine-8-carboxamide]
< 5.00	< 5%	6.26	48%	Cc1ccc(-c2cc(F)c(Cn3cc(C(=O)N[C@H]4CCCC[C@@H]4O)c4ncccc4c3=O)c(F)c2)cn1 [Compound A35, 6-(2,6-difluoro-4-(6-methylpyridin-3-yl)benzyl)-N-((1S,2S)-2-hydroxycyclohexyl)-5-oxo-5,6-dihydro-1,6-naphthyridine-8-carboxamide]
–	10%	6.31	75%	Cc1cc(-c2ccc(Cn3cc(C(=O)N[C@H]4CCOC[C@@H]4O)c4ncccc4c3=O)c(F)c2)ccn1 [Compound A26, 6-(2-fluoro-4-(2-methylpyridin-4-yl)benzyl)-N-((3R,4S)-3-hydroxytetrahydro-2H-pyran-4-yl)-5-oxo-5,6-dihydro-1,6-naphthyridine-8-carboxamide]
5.21	16%	6.46	69%	Cn1cc(-c2ccc(Cn3cc(C(=O)N[C@H]4CCCCC[C@@H]4O)c4ncccc4c3=O)c(F)c2)cn1 [Compound A24, 6-(2-fluoro-4-(1-methyl-1H-pyrazol-4-yl)benzyl)-N-((1S,2S)-2-hydroxycycloheptyl)-5-oxo-5,6-dihydro-1,6-naphthyridine-8-carboxamide]
< 5.00	< 5%	6.68	67%	Cn1cc2c(-c3cc(F)c(Cn4cc(C(=O)N[C@H]5CCCCC[C@@H]5O)c5ncccc5c4=O)c(F)c3)cccc2n1 [Compound A23, 6-(2,6-difluoro-4-(2-methyl-2H-indazol-4-yl)benzyl)-N-((1S,2S)-2-hydroxycycloheptyl)-5-oxo-5,6-dihydro-1,6-naphthyridine-8-carboxamide]
